Measured values reported in PubChem BioAssay (NCI).
Where “and” joins values, the source holds several entries; their conditions need not be identical. Equal entries are not always repeated.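 Test compounds were applied to cells in 96-well plates for 48 hours at 5 doses. Abbreviation: GI50, concentration required for 50% inhibition of growth. At the TGI there is no net growth.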 Where a SMILES comes first, the peptide text is derived from it. [ ]: non-standard residue; d: D form. The star is where a group is joined. ξ: configuration not given here. X6 = FC(F)(F)c1cc(NC(=S)*)cc(C(F)(F)F)c1; ξF = NC(Cc1ccccc1)C(=O)O

Assays:
Experiment in all cases: inhibition of tumour cell growth, NCI panel, 48 h
MDA-N = test system: MDA-N
NCI/ADR-RES ovarian = test system: NCI/ADR-RES ovarian
T-47D breast = test system: T-47D breast
LXFL 529 NSCLC = test system: LXFL 529 NSCLC
DLD-1 colon = test system: DLD-1 colon
SNB-78 CNS = test system: SNB-78 CNS
RXF-631 renal = test system: RXF-631 renal

Q: Which results are given for `O=C1C=C(Cl)C(=O)C(c2ccc(Cl)cc2)=C1`?
A: TGI (MDA-N): 27.5 µM; TGI (NCI/ADR-RES ovarian): 79 µM; TGI (T-47D breast): 84.4 µM

Q: What does the source list for `O=C1C(=O)N(c2ccc(Cl)cc2Cl)C(=O)C(=O)C1c1nc2ccccc2s1`?
A: TGI (LXFL 529 NSCLC): > 100 µM; TGI (DLD-1 colon): > 92.2 µM

Q: What does the source list for `CN1C(=O)C(C)(C)C2(SC(C)(C)C2(C)C)N(C)C1=S` (stereo unspecified)?
A: TGI (SNB-78 CNS): > 100 µM; TGI (LXFL 529 NSCLC): > 100 µM; TGI (DLD-1 colon): > 100 µM

Q: How did the TGI (SNB-78 CNS) turn out when `Clc1cc2nsnc2c(Cl)n1` was run?
A: > 100 µM

Q: And the TGI (LXFL 529 NSCLC)?
A: 27.8 µM

Q: And the TGI (DLD-1 colon)?
A: 42.1 µM

Q: For `N#CC(c1ccc(Cl)cc1)c1cccc(C(C#N)c2ccc(Cl)cc2)n1` (stereo unspecified), which TGI (SNB-78 CNS) is on record?
A: > 100 µM

Q: And the TGI (LXFL 529 NSCLC)?
A: > 100 µM

Q: And the TGI (DLD-1 colon)?
A: > 100 µM

Q: With `NC(=O)c1cccc2cn(-c3ccc([C@@H]4CCCNC4)cc3)nc12` as the compound, how does the GI50 (NCI/ADR-RES ovarian) read?
A: 19.5 µM

Q: What about the TGI (NCI/ADR-RES ovarian) of the same compound?
A: > 74.5 µM

Q: And the GI50 (T-47D breast)?
A: 12.9 µM

Q: And the TGI (T-47D breast)?
A: 35.5 µM

Q: How did the TGI (RXF-631 renal) turn out when `COC1CCC2C(NS(=O)(=O)c3ccc(C)cc3)CCCC2O1` (stereo unspecified) (tested in a mixture with another compound) was run?
A: > 34.5 µM

Q: And the TGI (SNB-78 CNS)?
A: > 34.5 µM

Q: And the TGI (DLD-1 colon)?
A: > 34.5 µM

Q: How did the TGI (RXF-631 renal) turn out when `CCOc1ccc(NC(=O)C(=O)CC(=O)c2c[n+](=O)c3cc(C)c(C)cc3n2[O-])cc1` was run?
A: > 100 µM

Q: And the TGI (SNB-78 CNS)?
A: > 100 µM

Q: What about the TGI (LXFL 529 NSCLC) of the same compound?
A: > 100 µM

Q: Which results are given for `O=C(CC1(O)C(=O)Nc2c(Cl)cc(Cl)cc21)c1ccc(Br)cc1Br` (stereo unspecified)?
A: TGI (RXF-631 renal): 9.25 µM; TGI (SNB-78 CNS): > 74.9 µM; TGI (MDA-N): 21.8 µM; TGI (DLD-1 colon): 24.1 µM

Q: With `CC12CCC(O)CC1CCC1C2CCC2(C)C(C3=CC(=O)OC3)CCC12O` (stereo unspecified) as the compound, how does the TGI (MDA-N) read?
A: 6.38 µM

Q: What about the TGI (NCI/ADR-RES ovarian) of the same compound?
A: 5.77 µM

Q: And the TGI (T-47D breast)?
A: 14.7 µM

Q: For `COc1cc2c(cc1OC)-c1c3cc(O)ccc3nn[n+]1CC2`, which TGI (SNB-78 CNS) is on record?
A: > 100 µM

Q: And the TGI (LXFL 529 NSCLC)?
A: > 100 µM

Q: And the TGI (DLD-1 colon)?
A: > 100 µM

Q: For `CCCCCCCCCCCOc1ccc(C(=O)C(=O)c2ccc(OCCCCCCCCCCC)c(OCCCCCCCCCCC)c2)cc1OCCCCCCCCCCC`, which TGI (SNB-78 CNS) is on record?
A: > 100 µM

Q: And the TGI (LXFL 529 NSCLC)?
A: > 100 µM

Q: And the TGI (DLD-1 colon)?
A: > 100 µM

Q: How did the TGI (MDA-N) turn out when `Nc1ccccc1SC(C[N+](=O)[O-])c1ccc2c(c1)OCO2` (stereo unspecified) was run?
A: 4.63 µM

Q: And the TGI (NCI/ADR-RES ovarian)?
A: 73 µM

Q: What about the TGI (T-47D breast) of the same compound?
A: 25.8 µM

Q: `COc1cc(-c2nn(-c3ccc(NC(=O)c4ccc(Cl)c(C(F)(F)F)c4)cc3)cc2-c2ccncc2)ccc1Cl` was tested. Which GI50 (NCI/ADR-RES ovarian) did it give?
A: 3.63 µM

Q: And the TGI (NCI/ADR-RES ovarian)?
A: > 100 µM

Q: What about the GI50 (T-47D breast) of the same compound?
A: 2.98 µM

Q: What about the TGI (T-47D breast) of the same compound?
A: > 100 µM

Q: What does the source list for `COC(=O)[C@@H](NC(=O)CNC(=O)[C@H]1CCCN1C(=O)C(Cc1ccccc1)NC(=S)Nc1cc(C(F)(F)F)cc(C(F)(F)F)c1)C(C)C` (stereo partly specified) (X6-[ξF][dP]GV-OMe)?
A: GI50 (NCI/ADR-RES ovarian): 3.47 µM; TGI (NCI/ADR-RES ovarian): 43.3 µM; GI50 (T-47D breast): 3.87 µM; TGI (T-47D breast): 28.8 µM

Q: What does the source list for `CC(C)C/C(CC(=O)CCC(=O)Nc1ccccc1[N+](=O)[O-])=N\NC(=O)c1cc2ccccc2cc1O`?
A: TGI (RXF-631 renal): > 100 µM; TGI (LXFL 529 NSCLC): > 100 µM; TGI (DLD-1 colon): > 100 µM

Q: With `Cn1c2ccccc2c2c(Nc3ccccc3)c3ccccc3nc21` as the compound, how does the GI50 (NCI/ADR-RES ovarian) read?
A: 54.1 µM

Q: What about the TGI (NCI/ADR-RES ovarian) of the same compound?
A: > 100 µM

Q: What about the GI50 (T-47D breast) of the same compound?
A: 40.5 µM

Q: And the TGI (T-47D breast)?
A: > 100 µM

Q: `C=C(CN1CCN(c2ccc(Cl)cc2F)CC1)c1ccc(C(=O)Nc2ccccc2N)cc1` was tested. Which GI50 (NCI/ADR-RES ovarian) did it give?
A: 1.97 µM

Q: And the TGI (NCI/ADR-RES ovarian)?
A: 5.5 µM

Q: And the TGI (T-47D breast)?
A: > 100 µM

Q: Which results are given for `O=CC[C@H]1C(=O)C[C@@H]2CCC[C@@H]21`?
A: TGI (SNB-78 CNS): > 100 µM; TGI (LXFL 529 NSCLC): > 100 µM

Q: How did the TGI (SNB-78 CNS) turn out when `CN(C)C(=N)c1ccccc1` was run?
A: > 100 µM

Q: And the TGI (LXFL 529 NSCLC)?
A: > 100 µM

Q: Which GI50 (NCI/ADR-RES ovarian) does the source give for `COC1=CC(=O)c2nc(-c3ccncc3)[nH]c2C1=O` here?
A: > 100 µM

Q: And the TGI (NCI/ADR-RES ovarian)?
A: > 100 µM

Q: What about the GI50 (T-47D breast) of the same compound?
A: > 100 µM

Q: And the TGI (T-47D breast)?
A: > 100 µM

Q: `CC(C)CCC[C@@H](C)[C@H]1CC[C@H]2[C@@H]3CC=C4C[C@@H](C(C(=O)O)C(=O)O)CC[C@]4(C)[C@H]3CC[C@]12C` was tested. Which GI50 (NCI/ADR-RES ovarian) did it give?
A: 0.22 µM

Q: And the TGI (NCI/ADR-RES ovarian)?
A: 6 µM

Q: What about the GI50 (T-47D breast) of the same compound?
A: 0.188 µM

Q: What about the TGI (T-47D breast) of the same compound?
A: 2.8 µM

Q: What does the source list for `COc1ccc2c(c1)/C(=C/c1c(C)nc3sc(C)nn13)C(=O)N2`?
A: GI50 (NCI/ADR-RES ovarian): 1.83 µM; TGI (NCI/ADR-RES ovarian): 13.6 µM; GI50 (T-47D breast): 2.53 µM; TGI (T-47D breast): > 100 µM

Q: What does the source list for `CCN(CCO)CC1CCCC2CCCCC21` (stereo unspecified)?
A: TGI (MDA-N): > 100 µM; TGI (NCI/ADR-RES ovarian): > 100 µM; TGI (T-47D breast): > 100 µM

Q: What does the source list for `Cn1cc(C2=C(c3cn(C)c4ncccc34)C(=O)NC2=O)c2ccccc21`?
A: GI50 (NCI/ADR-RES ovarian): 11.5 µM; TGI (NCI/ADR-RES ovarian): > 25 µM; GI50 (T-47D breast): 7.56 µM; TGI (T-47D breast): > 23.5 µM

Q: With `N#CCCN(CCC#N)c1ccc(/C=C2\N=C(c3cc([N+](=O)[O-])ccc3Cl)OC2=O)cc1` as the compound, how does the TGI (LXFL 529 NSCLC) read?
A: 49.3 µM

Q: With `O=C(/C=C/C12c3ccccc3C(c3ccccc31)C1C(=O)NC(=O)C12)c1ccncc1` (stereo unspecified) as the compound, how does the GI50 (NCI/ADR-RES ovarian) read?
A: 2.31 µM

Q: What about the TGI (NCI/ADR-RES ovarian) of the same compound?
A: 6.71 µM

Q: And the GI50 (T-47D breast)?
A: 2.82 µM

Q: And the TGI (T-47D breast)?
A: 12.9 µM

Q: With `COc1ccc2c(C3=C(c4cn(C)c5ccccc45)C(=O)NC3=O)cn(C)c2c1` as the compound, how does the GI50 (NCI/ADR-RES ovarian) read?
A: 0.0928 µM

Q: What about the TGI (NCI/ADR-RES ovarian) of the same compound?
A: > 25 µM

Q: What does the source list for `COC1=CC(c2ccc[nH]2)=N/C1=C\c1[nH]c(C)c(C(=O)OC(C)C)c1C`?
A: GI50 (NCI/ADR-RES ovarian): 0.0367 µM; TGI (NCI/ADR-RES ovarian): 1.42 µM; GI50 (T-47D breast): 0.0522 µM; TGI (T-47D breast): 1.74 µM

Q: `CCC(CO)Nc1nc2ccc(Cl)cc2c2ccccc12` (stereo unspecified) was tested. Which GI50 (NCI/ADR-RES ovarian) did it give?
A: 5.95 µM

Q: What about the TGI (NCI/ADR-RES ovarian) of the same compound?
A: 21.4 µM

Q: And the GI50 (T-47D breast)?
A: 6.13 µM

Q: And the TGI (T-47D breast)?
A: 20.9 µM

Q: Which TGI (SNB-78 CNS) does the source give for `COC(CN1C(=O)c2cccc3cccc(c23)C1=O)OC` here?
A: > 100 µM

Q: What about the TGI (LXFL 529 NSCLC) of the same compound?
A: > 100 µM

Q: What about the TGI (DLD-1 colon) of the same compound?
A: > 100 µM

Q: What does the source list for `Cc1nc2ccccc2c(N)c1-c1cc(C)c2c(C)nc3ccccc3c2n1`?
A: GI50 (NCI/ADR-RES ovarian): 1.34 µM; TGI (NCI/ADR-RES ovarian): 3.15 µM; GI50 (T-47D breast): 1.78 µM; TGI (T-47D breast): 4.04 µM

Q: Which results are given for `COC1CCC(N2C(=O)CNc3ncc(-c4ccc(C(C)(C)O)nc4)nc32)CC1` (stereo unspecified)?
A: GI50 (NCI/ADR-RES ovarian): 1.64 µM and 0.435 µM; TGI (NCI/ADR-RES ovarian): > 100 µM; GI50 (T-47D breast): 0.159 µM and 0.0258 µM; TGI (T-47D breast): 0.786 µM and 0.306 µM

Q: Which results are given for `O=C1CC(c2ccc3c(c2)OCO3)Nc2ccccc21` (stereo unspecified)?
A: GI50 (NCI/ADR-RES ovarian): 11.8 µM; TGI (NCI/ADR-RES ovarian): 39.9 µM; GI50 (T-47D breast): 5.23 µM; TGI (T-47D breast): 73.9 µM

Q: How did the TGI (SNB-78 CNS) turn out when `CC1=C(C(=O)NCc2ccccc2)C(/C=C/c2ccccc2)C(C(=O)NCc2ccccc2)=C(C)N1` was run?
A: > 100 µM

Q: And the TGI (LXFL 529 NSCLC)?
A: > 100 µM

Q: And the TGI (DLD-1 colon)?
A: > 100 µM

Q: With `COc1ccc2c3c1C(=O)CCCC3CO2` (stereo unspecified) as the compound, how does the TGI (SNB-78 CNS) read?
A: > 100 µM

Q: What about the TGI (LXFL 529 NSCLC) of the same compound?
A: > 100 µM

Q: And the TGI (DLD-1 colon)?
A: > 100 µM

Q: What does the source list for `Brc1ccc(N=c2nc3ccccn3n3nc(-c4ccccc4)cc23)cc1`?
A: TGI (RXF-631 renal): > 100 µM; TGI (LXFL 529 NSCLC): > 100 µM; TGI (DLD-1 colon): 47.7 µM

Q: For `C=C1C(=O)C23CC1CCC2C12CO[C@@H]4OCC(C)(CC[C@@H]1OC3=O)C42` (stereo partly specified), which TGI (RXF-631 renal) is on record?
A: 47.8 µM

Q: And the TGI (SNB-78 CNS)?
A: 9.57 µM

Q: And the TGI (LXFL 529 NSCLC)?
A: 9.39 µM

Q: How did the TGI (SNB-78 CNS) turn out when `Cc1nc2ccccc2c(=O)n1-c1ccccc1I` was run?
A: > 100 µM

Q: And the TGI (LXFL 529 NSCLC)?
A: > 100 µM

Q: And the TGI (DLD-1 colon)?
A: > 100 µM
